# Read-outs that look alike come from different tables or passages of the source.
# Experiments:
# [1] = molecular target: HCV NS3/4A protease complex (Hepatitis C virus genotype 1a, UniProt P27958, C1454S/C1711G); assay: Recombinant HCV NS3/4A protease complex FRET peptide assay (strain not stated); type: biochemical; conditions: IC50, NS3/4A protease enzyme assay, strain not stated; activity ranges
# [2] = system: HCV replicon in Huh7 cells; assay: HCV replicon cell-based assay; parameters: species or system HCV strain 1B; conditions: Hepatitis C virus, Huh-7, 96 h
# Outline: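 Genotype 1b subgenomic replicon Huh7 cells exposed to compound 4 days at 37° C in 4% FCS, 0.5% DMSO medium. EC50 from TaqMan RT-PCR of HCV RNA, normalized to total RNA by RiboGreen; CC50 from alamar Blue fluorescence after 4 h.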
# [3] = HCV replicon, Huh7 cells, 4 days, activity ranges, read-out: EC50
# Chain of HCV NS3/4A protease complex (P27958 1027-1711, stated change not applied): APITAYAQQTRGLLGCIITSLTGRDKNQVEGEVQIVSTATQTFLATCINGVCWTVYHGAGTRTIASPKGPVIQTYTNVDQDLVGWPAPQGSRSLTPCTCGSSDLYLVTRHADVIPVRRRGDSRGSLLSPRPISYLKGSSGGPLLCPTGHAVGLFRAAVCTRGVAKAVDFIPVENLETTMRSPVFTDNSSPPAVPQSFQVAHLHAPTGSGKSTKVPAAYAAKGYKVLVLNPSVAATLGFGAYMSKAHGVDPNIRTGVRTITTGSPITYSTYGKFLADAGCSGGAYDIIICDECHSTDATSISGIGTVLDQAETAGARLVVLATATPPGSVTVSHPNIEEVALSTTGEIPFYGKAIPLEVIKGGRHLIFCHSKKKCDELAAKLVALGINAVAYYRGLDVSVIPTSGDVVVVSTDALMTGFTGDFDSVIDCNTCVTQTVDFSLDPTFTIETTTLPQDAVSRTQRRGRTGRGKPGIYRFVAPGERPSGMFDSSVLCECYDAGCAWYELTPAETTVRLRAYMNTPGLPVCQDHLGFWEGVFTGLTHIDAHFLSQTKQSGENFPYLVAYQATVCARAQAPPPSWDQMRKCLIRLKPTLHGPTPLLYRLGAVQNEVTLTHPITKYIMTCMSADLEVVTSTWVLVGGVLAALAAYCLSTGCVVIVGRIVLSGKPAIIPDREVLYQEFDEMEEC
# Chain of HCV NS3/4A protease complex (P27958 1027-1711, stated change not applied): as above
SMILES,IC50 [1],"EC50 [2, 3]",EC50 [2]
"C=C[C@@H]1C[C@]1(NC(=O)C1C[C@@H](Oc2cc(-c3ccccc3)nc3cc(OC)ccc23)CN1C(=O)[C@@H](NC(=O)C(F)(F)F)C(C)(C)C)C(=O)NS(=O)(=O)C1CC1 (stereo partly drawn) [Compound 99, 1-[3,3-dimethyl-2S-(2,2,2-trifluoro-acetylamino)-butyryl]-4R-(7-methoxy-2-phenylquinolin-4-yloxy)pyrrolidine-2S-carboxylic acid(1R-cyclopropanesulfonylaminocarbonyl-2S-vinylcyclopropyl)amide]",< 50 nM,< 500 nM,–
"C=C[C@@H]1C[C@]1(NC(=O)C1C[C@@H](Oc2cc(-c3ccccc3)nc3cc(OC)ccc23)CN1C(=O)[C@@H](NC(=O)CCC(=O)O)C(C)(C)C)C(=O)NS(=O)(=O)C1CC1 (stereo partly drawn) [Compound 100, N-{1S-[2S-(1R-cyclopropanesulfonylaminocarbonyl-2S-vinyl-cyclopropylcarbamoyl)-4R-(7-methoxy-2-phenyl-quinolin-4-yloxy)-pyrrolidine-1-carbonyl]-2,2-dimethyl-propyl}-succinamic acid]",< 50 nM,< 500 nM,–
"C=C[C@@H]1C[C@]1(NC(=O)C1C[C@@H](Oc2cc(-c3ccccc3)nc3cc(OC)ccc23)CN1C(=O)[C@@H](NC(=O)C(C)(C)C)C(C)(C)C)C(=O)NS(=O)(=O)C1CC1 (stereo partly drawn) [Compound 101, 1-[2S-(2,2-Dimethylpropionylamino)-3,3-dimethyl-butyryl]-4R-(7-methoxy-2-phenyl-quinolin-4-yloxy)-pyrrolidine-2S-carboxylic acid (1R-cyclo-propanesulfonylaminocarbonyl-2S-vinylcyclopropyl)-amide]",< 50 nM,< 500 nM,–
"C=C[C@@H]1C[C@]1(NC(=O)C1C[C@@H](Oc2cc(-c3ccccc3)nc3cc(OC)ccc23)CN1C(=O)[C@@H](NC(=O)CO)C(C)(C)C)C(=O)NS(=O)(=O)C1CC1 (stereo partly drawn) [Compound 102, 1-[2S-(2-hydroxy-acetylamino)-3,3-dimethyl-butyryl]-4R-(7-methoxy-2-phenyl-quinolin-4-yloxy)-pyrrolidine-2S-carboxylic acid (1R-cyclopropanesulfonylamino-carbonyl-2S-vinyl-cyclopropyl)-amide]",< 50 nM,< 500 nM,–
"C=C[C@@H]1C[C@]1(NC(=O)C1C[C@@H](Oc2cc(-c3ccccc3)nc3cc(OC)ccc23)CN1C(=O)[C@@H](NC(=O)CC(C)(C)C)C(C)(C)C)C(=O)NS(=O)(=O)C1CC1 (stereo partly drawn) [Compound 103, 1-[2S-(3,3-Dimethyl-butyrylamino)-3,3-dimethyl-butyryl]-4R-(7-methoxy-2-phenyl-quinolin-4-yloxy)-pyrrolidine-2S-carboxylic acid (1R-cyclopropanesulfonylaminocarbonyl-2S-vinyl-cyclopropyl)amide]",< 50 nM,< 50 nM,–
"C=C[C@@H]1C[C@]1(NC(=O)C1C[C@@H](Oc2cc(-c3ccccc3)nc3cc(OC)ccc23)CN1C(=O)[C@@H](NC(=O)CC1CC1)C(C)(C)C)C(=O)NS(=O)(=O)C1CC1 (stereo partly drawn) [Compound 104, 1-[2S-(2-cyclopropyl-acetylamino)-3,3-dimethyl-butyryl]-4R-(7-methoxy-2-phenyl-quinolin-4-yloxy)-pyrrolidine-2S-carboxylic acid (1R-cyclopropanesulfonylaminocarbonyl-2S-vinyl-cyclopropyl)-amide]",< 50 nM,< 50 nM,–
"C=CC1CC1(NC(=O)C1CC(Oc2cc(-c3ccccc3)nc3cc(OC)ccc23)CN1C(=O)C(NC(=O)C1C2CC1C2)C(C)(C)C)C(=O)NS(=O)(=O)C1CC1 (stereo not drawn) [Compound 105, 1-{2S-[(bicyclo[1.1.1]pentane-2-carbonyl)-amino]-3,3-dimethyl-butyryl}-4R-(7-methoxy-2-phenyl-quinolin-4-yloxy)-pyrrolidine-2S-carboxylic acid (1R-cyclopropanesulfonylaminocarbonyl-2S-vinylcyclopropyl)amide]",< 50 nM,< 50 nM,–
"C=C[C@@H]1C[C@]1(NC(=O)C1C[C@@H](Oc2cc(-c3ccccc3)nc3cc(OC)ccc23)CN1C(=O)[C@@H](NC(=O)COC(C)=O)C(C)(C)C)C(=O)NS(=O)(=O)C1CC1 (stereo partly drawn) [Compound 106, acetic acid {1S-[2S-(1R-cyclopropanesulfonylaminocarbonyl-2S-vinyl-cyclopropylcarbamoyl)-4R-(7-methoxy-2-phenyl-quinolin-4-yloxy)-pyrrolidine-1-carbonyl]-2,2-dimethyl-propylcarbamoyl}-methyl ester]",< 50 nM,< 500 nM,–
"C=C[C@@H]1C[C@]1(NC(=O)C1C[C@@H](Oc2cc(-c3ccccc3)nc3cc(OC)ccc23)CN1C(=O)[C@@H](NC(=O)COC)C(C)(C)C)C(=O)NS(=O)(=O)C1CC1 (stereo partly drawn) [Compound 107, 1-[2S-(2-methoxy-acetylamino)-3,3-dimethyl-butyryl]-4R-(7-methoxy-2-phenyl-quinolin-4-yloxy)-pyrrolidine-2S-carboxylic acid (1R-cyclopropanesulfonylamino-carbonyl-2S-vinyl-cyclopropyl)-amide]",< 50 nM,< 500 nM,–
C=C[C@@H]1C[C@]1(NC(=O)C1C[C@@H](Oc2cc(-c3ccccc3)nc3cc(OC)ccc23)CN1C(=O)[C@@H](NC(=O)COc1ccc(OC)cc1)C(C)(C)C)C(=O)NS(=O)(=O)C1CC1 (stereo partly shown) [Compound 108],< 50 nM,< 500 nM,–
"C=C[C@@H]1C[C@]1(NC(=O)C1C[C@@H](Oc2cc(-c3ccccc3)nc3cc(OC)ccc23)CN1C(=O)[C@@H](NC(=O)COc1ccc(F)cc1)C(C)(C)C)C(=O)NS(=O)(=O)C1CC1 (stereo partly drawn) [Compound 109, 1-{2S-[2-(4-Fluoro-phenoxy)-acetylamino]-3,3-dimethyl-butyryl}-4R-(7-methoxy-2-phenyl-quinolin-4-yloxy)-pyrrolidine-2S-carboxylic acid (1R-cyclopropanesulfonylaminocarbonyl-2S-vinylcyclopropyl)-amide]",< 50 nM,< 500 nM,–
"C=C[C@@H]1C[C@]1(NC(=O)C1C[C@@H](Oc2cc(-c3ccccc3)nc3cc(OC)ccc23)CN1C(=O)[C@@H](NC(=O)c1ccco1)C(C)(C)C)C(=O)NS(=O)(=O)C1CC1 (stereo partly drawn) [Compound 110, 1-{2S-[(furan-2-carbonyl)-amino]-3,3-dimethyl-butyryl}-4R-(7-methoxy-2-phenyl-quinolin-4-yloxy)-pyrrolidine-2S-carboxylic acid (1R-cyclopropanesulfonylaminocarbonyl-2S-vinyl-cyclopropyl)-amide]",< 50 nM,< 500 nM,–
"C=C[C@@H]1C[C@]1(NC(=O)C1C[C@@H](Oc2cc(-c3ccccc3)nc3cc(OC)ccc23)CN1C(=O)[C@@H](NC(=O)C1(O)CC1)C(C)(C)C)C(=O)NS(=O)(=O)C1CC1 (stereo partly drawn) [Compound 111, 1-{2S-[(1-hydroxy-cyclopropanecarbonyl)-amino]-3,3-dimethyl-butyryl}-4R-(7-methoxy-2-phenyl-quinolin-4-yloxy)pyrrolidine-2S-carboxylic acid (1R-cyclopropanesulfonylaminocarbonyl-2S-vinylcyclopropyl)amide]",< 50 nM,< 5000 nM,–
"C=C[C@@H]1C[C@]1(NC(=O)C1C[C@@H](Oc2cc(-c3ccccc3)nc3cc(OC)ccc23)CN1C(=O)[C@@H](NC(=O)CF)C(C)(C)C)C(=O)NS(=O)(=O)C1CC1 (stereo partly drawn) [Compound 112, 1-[2S-(2-Fluoro-acetylamino)-3,3-dimethyl-butyryl]-4R-(7-methoxy-2-phenyl-quinolin-4-yloxy)-pyrrolidine-2S-carboxylic acid (1R-cyclopropanesulfonylaminocarbonyl-2S-vinyl-cyclopropyl)-amide]",< 50 nM,–,< 50 nM
